Results taken from BindingDB's records for doi:10.1111/j.1747-0285.2011.01199.x (Sanford-Burnham Medical Research Institute, 2011).

Molecular target: T1, Ephrin type-A receptor 4 [1-949,A922V] (Homo sapiens, UniProt P54764, A922V)
T1 construct: 1-949
Assay: Enzyme-linked Immunosorbent Assay
Conditions: pH 7.5
Description: Protein A-coasted wells (from Pierce Biotechnology) were used to immobilize Eph receptor Fc fusion proteins (from R&D systems)incubated at 1 ug/ml in TBST.

| IC50 | Structure (SMILES) |
| --- | --- |
| 1.3 µM | Cc1ccc(C)n1-c1ccc(C(=O)O)c(O)c1 [4-(2,5-dimethyl-1H-pyrrol-1-yl)-2-hydroxybenzoic acid] |
| > 500 µM | O=C(O)/C=C/c1ccc(-c2ccc(O)c(C(=O)O)c2)o1 [Salicylic acid derivative, 76A5] |
| > 500 µM | O=C(O)c1ccc(-c2ccc(O)c(C(=O)O)c2)o1 [Salicylic acid derivative, 76B8] |
| 2.6 µM | O=C(/C=C/c1ccc(-c2ccc(O)c(C(=O)O)c2)o1)/C=C/c1ccc(-c2ccc(O)c(C(=O)O)c2)o1 [Salicylic acid derivative, 76D10] |

| Structure (SMILES) | IC50 |
| --- | --- |
| Cc1ccc(C)n1-c1ccc(O)c(C(=O)O)c1 [Salicylic acid derivative, compound 2] | 10 µM |
